Patent US20230203485A1, “METHODS FOR MODULATING MHC-I EXPRESSION AND IMMUNOTHERAPY USES THEREOF” (Dana-Farber Cancer Institute, Inc., priority 2020, published 2023)

Test system: class I antigen presentation gene expression in MCC cell lines
Test: RNA-seq / DESeq2 differential expression of MCC cell lines at baseline and after IFN-γ stimulation
Format: cell-based, human
Details: for log2FoldChange: 11 MCC cell lines, baseline vs IFNγ, negative LFC = upregulation in IFNγ-treated
Description: FIG. 2A comprises RNA-seq heatmaps of class I antigen presentation gene expression in MCC lines and controls.
FIG. 2B is a volcano plot of differentially expressed genes (genes below FDR cutoff 0.01 are shown in yellow) between baseline and IFN-γ-treated MCC cell lines. Differential expression analysis was performed using DESeq2, and negative LFC indicates increased expression in +IFN-γ samples. IFN genes are highlighted in red.
RNA samples were first assessed for quality using the Agilent Bioanalyzer (DV200 metric). One hundred ng of RNA were used as the input for first strand cDNA synthesis using Superscript III reverse transcriptase and Illumina's TruSeq RNA Access Sample Prep Kit. Synthesis of the second strand of cDNA was followed by indexed adapter ligation with UMI (unique molecular index) adaptors. Subsequent PCR amplification enriched for adapted fragments. Amplified libraries were quantified, normalized, pooled, and hybridized with exome targeting oligos. Following hybridization, bead clean-up, elution and PCR was performed to prepare library pools for sequencing on Illumina flowcell lanes. Transcriptomes were sequenced to a coverage of at least 50 million reads in pairs.
Raw fastq files for fibroblast and keratinocyte control lines were downloaded from SRA using R Bioconductor package SRAdb (Mayakonda et al. (2018) supra; Zhu et al. (2013) BMC Bioinformatics 14 (1): 1-4) using accession codes SRP126422 (4 replicates from control samples ‘NN’) and SRP131347 (6 replicates with condition: control and genotype: control). These fastq files, along with those for the mkl1 and waga cell lines, were aligned using STAR version 2.7.3a (Dobin et al. (2013) Bioinformatics 29 (1): 15-21), using index genome reference file downloaded from ftp.ebi.ac.uk/pub/databases/gencode/Gencode_human/release_19/GRCh37.p13.genome.fa.gz, transcript annotation file downloaded from data.broadinstitute.org/snowman/hg19/star/gencode.v19.annotation.gtf, and with the following options: --twopassMode Basic, --outSAMstrandField intronMotif, --alignIntronMax 1000000, --alignMatesGapMax 1000000, --sjdbScore 2, --outSAMtype BAM Unsorted, --outSAMattributes NH HI NM MD AS XS, --outFilterType BySJout, --outSAMunmapped Within, --genomeLoad NoSharedMemory, --outFilterScoreMinOverLread 0, --outFilterMatchNminOverLread 0, --outFilterMismatchNmax 999, and outFilterMultimapNmax 20. Duplicates were marked with picard MarkDuplicates version 2.22.0-SNAPSHOT.
RNA-sequencing bam files for MCC tumor and cell line samples were downloaded from the Broad Genomics Firecloud/Terra platform using the Google Cloud Storage command line tool gsutil version 4.5 (github.com/GoogleCloudPlatform/gsutil/).
Gene counts were obtained from bam files using featureCounts version 2.0.0 (doi.org/10.1093/bioinformatics/btt656). Very lowly expressed genes with average count across samples less than 1 were excluded from analysis. Between-sample distance metrics were computed using the Euclidean distance on the vectors of variance-stabilized counts obtained from the vst function in the DESeq2 R Bioconductor package ([…]; Love et al. (2014) Genome Biology 15 (12): 550).
Differential expression analysis was carried out between (1) viral positive and viral negative samples (adjusting for cell line or tumor as a covariate), (2) cell line and tumor samples (adjusting for viral status as a covariate), and (3) IFNγ plus and minus samples (adjusting for viral status as a covariate) using the negative binomial GLM Wald test of DESeq2, where significance was assessed using the p-values adjusted for multiple comparisons under default settings. To account for potential global gene expression differences among sample groups, RUVg (Risso et al. (2014) […] 32 (9): 896-902) was used to estimate latent factors of unwanted variation from the list of housekeeping genes downloaded from www.tau.ac.il/˜elieis/HKG/HK_genes.txt. […]

Substance: IFN-y: type II interferon, recombinant human, used to treat MCC cells
- log2FoldChange (ENSG00000259321.1 (symbol NA)): −2.031
- log2FoldChange (ENSG00000259529.1 (symbol NA)): −0.9956
- log2FoldChange (ENSG00000260929.1 (symbol NA)): −3.413
- log2FoldChange (ENSG00000261644.1 (symbol NA)): −3.585
- log2FoldChange (ENSG00000261690.1 (symbol NA)): −3.339
- log2FoldChange (ENSG00000261884.2 (symbol NA)): −2.414
- log2FoldChange (ENSG00000262222.1 (symbol NA)): −3.296
- log2FoldChange (ENSG00000262979.1 (symbol NA)): −3.334
- log2FoldChange (ENSG00000263013.1 (symbol NA)): −1.286
- log2FoldChange (ENSG00000263120.1 (symbol NA)): −1.445
- log2FoldChange (ENSG00000263179.1 (symbol NA)): −3.474
- log2FoldChange (ENSG00000269640.1 (symbol NA)): −6.567
- log2FoldChange (ENSG00000271579.1 (symbol NA)): −6.737
- log2FoldChange (ENSG00000273189.1 (symbol NA)): −1.701
- log2FoldChange (EPSTI1 ENSG00000133106.10): −3.837
- log2FoldChange (FBXO7 ENSG00000100225.13): −0.4101
- log2FoldChange (FBXO39 ENSG00000177294.6): −6.492
- log2FoldChange (FBXO47 ENSG00000204952.2): −4.04
- log2FoldChange (FLT3LG ENSG00000090554.8): −2.012
- log2FoldChange (HELZ2 ENSG00000130589.12): −1.739
- log2FoldChange (ICAM1 ENSG00000090339.4): −6.633
- log2FoldChange (IFI27 ENSG00000165949.8): −3.4
- log2FoldChange (IFI35 ENSG00000068079.3): −6.454
- log2FoldChange (IL12RB1 ENSG00000096996.11): −4.561
- log2FoldChange (IRF8 ENSG00000140968.6): −2.927
- log2FoldChange (IRF9 ENSG00000213928.4): −2.537
- log2FoldChange (ISG20 ENSG00000172183.10): −2.416
- log2FoldChange (KRT39 ENSG00000196859.3): −4.95
- log2FoldChange (LGALS3BP ENSG00000108679.8): −1.502
- log2FoldChange (LGALS9 ENSG00000168961.12): −2.739
- log2FoldChange (LGALS17A ENSG00000226025.5): −5.881
- log2FoldChange (LINC01993 ENSG00000204277.1): −2.419
- log2FoldChange (LOC254028 ENSG00000258573.1): −5.436
- log2FoldChange (LOC100294362 ENSG00000263069.1): 1.32
- log2FoldChange (LOC100996660 ENSG00000267248.1): −0.6048
- HLA-A, -B, and -C mRNA (MCC-336, line non-IFN-responsive by flow cytometry): lack of IFN-induced HLA-A, -B, and -C mRNA upregulation
- log2FoldChange (MIR762HG ENSG00000260083.1): −0.6586
- log2FoldChange (MLKL ENSG00000168404.8): −2.957
- log2FoldChange (MT2A ENSG00000125148.6): −1.532
- log2FoldChange (MVP ENSG00000013364.14): −1.512
- log2FoldChange (MX2 ENSG00000183486.8): −5.048
- log2FoldChange (MXI ENSG00000157601.9): −7.168
- log2FoldChange (NLRC5 ENSG00000140853.11): −5.85
- log2FoldChange (NUCB1 ENSG00000104805.11): −0.6283
- log2FoldChange (OAS1 ENSG00000089127.8): −4.621
- log2FoldChange (OAS2 ENSG00000111335.8): −5.442
- log2FoldChange (OAS3 ENSG00000111331.8): −2.277
- log2FoldChange (OASL ENSG00000135114.8): −6.129
- log2FoldChange (OGFR ENSG00000060491.12): −1
- log2FoldChange (PARP4 ENSG00000102699.5): −1.087
- log2FoldChange (PATL2 ENSG00000229474.2): −4.443
- log2FoldChange (PLK1 ENSG00000166851.10): 0.5496
- log2FoldChange (PMAIP1 ENSG00000141682.11): −0.9928
- log2FoldChange (PML ENSG00000140464.15): −1.421
- log2FoldChange (PSMA3 ENSG00000100567.8): −0.4149
- log2FoldChange (PSMB10 ENSG00000205220.7): −5.255
- log2FoldChange (PSME1 ENSG00000092010.10): −1.964
- log2FoldChange (PSME2 ENSG00000100911.9): −1.919
- log2FoldChange (RAB2B ENSG00000129472.8): −0.4425
- log2FoldChange (RIN3 ENSG00000100599.11): −2.337
- log2FoldChange (RNF31 ENSG00000092098.12): −0.6387
- log2FoldChange (RNF213 ENSG00000173821.15): −3.097
- log2FoldChange (SAMHD1 ENSG00000101347.7): −2.663
- log2FoldChange (SOCS1 ENSG00000185338.4): −2.585
- log2FoldChange (SOCS3 ENSG00000184557.3): −1.797
- log2FoldChange (SPTLC3 ENSG00000172296.8): −2.773
- log2FoldChange (STAT3 ENSG00000168610.10): −0.9181
- log2FoldChange (TEKT5 ENSG00000153060.3): −1.743
- log2FoldChange (TRAFD1 ENSG00000135148.7): −0.5883
- log2FoldChange (TRIM25 ENSG00000121060.10): −1.048
- log2FoldChange (TRIM69 ENSG00000185880.8): −2.829
- log2FoldChange (USP18 ENSG00000184979.9): −1.899
- log2FoldChange (USP30-AS1 ENSG00000256262.1): −8.218
- log2FoldChange (VPS13C ENSG00000129003.11): −0.9131
- log2FoldChange (WARS ENSG00000140105.13): −3.32
- log2FoldChange (WIPI1 ENSG00000070540.8): −1.205
- log2FoldChange (XAFI ENSG00000132530.12): −11.47
- log2FoldChange (ZBP1 ENSG00000124256.10): −5.347
- log2FoldChange (ZNFX1 ENSG00000124201.10): −1.109
